Columns and labels:
rats [1] = assay: bicuculline seizure threshold test; type: in vivo; settings: rat; proconvulsant activity; NS = no statistically significant effect versus vehicle
Excerpt: (§1) A statistically significant effect in the spatial water maze, step-down passive avoidance, spontaneous locomotor activity, Porsolt swim test, or the elevated plus maze models is defined as p<0.05 using a valid parametric statistical test. Likewise, no statistically significant effect is defined in these models as p>0.05 using a valid parametric statistical test. No statistically significant effect for either of the seizure threshold models is defined as a decrease of less than 25% in the seizure threshold in the presence of a seizure inducing drug or a result that is not significant at the p<0.05 level.
This test provides a measure of whether the test compound is proconvulsant by measuring whether the test compound produces any change in the dose of the seizure inducing drug, bicuculline, needed to elicit seizures in rats. […]
Adult male Sprague-Dawley rats (175-300 g) are weighed and placed in a rat restrainer. […] Patency of catheter placement is tested by backflow of venous blood and ready infusion of less than 2 ml of saline solution. […]
Test compound is infused 5 minutes prior to the start of bicuculline infusion. […] The time elapsed from the start of bicuculline infusion to first myoclonic jerk (first head/neck twitch), the initiation of full myoclonus (writhing), and final forelimb extension is all recorded using a digital stopwatch. […]

[2] = target: α2β3γ2 GABAA subtype receptor (Homo sapiens, UniProt P18507+P47869); assay: cell-based; settings: oocyte electrophysiology EC50 α2β3γ2, Xenopus laevis oocytes, human subunits, GABA at EC10
Sequence of α2β3γ2 GABAA subtype receptor (P47869 29-451): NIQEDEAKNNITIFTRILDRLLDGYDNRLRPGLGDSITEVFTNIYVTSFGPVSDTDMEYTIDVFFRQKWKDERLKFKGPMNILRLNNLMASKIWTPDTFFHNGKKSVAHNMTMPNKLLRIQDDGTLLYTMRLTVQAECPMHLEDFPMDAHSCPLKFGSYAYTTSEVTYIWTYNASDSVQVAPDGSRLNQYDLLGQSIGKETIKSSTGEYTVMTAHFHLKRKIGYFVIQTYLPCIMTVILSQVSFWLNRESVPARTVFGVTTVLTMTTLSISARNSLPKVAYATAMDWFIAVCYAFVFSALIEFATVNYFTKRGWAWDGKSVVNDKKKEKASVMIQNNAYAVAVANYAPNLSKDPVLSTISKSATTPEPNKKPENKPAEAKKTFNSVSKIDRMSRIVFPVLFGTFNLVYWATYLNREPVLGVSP
Sequence of α2β3γ2 GABAA subtype receptor (P28472 26-473 partner): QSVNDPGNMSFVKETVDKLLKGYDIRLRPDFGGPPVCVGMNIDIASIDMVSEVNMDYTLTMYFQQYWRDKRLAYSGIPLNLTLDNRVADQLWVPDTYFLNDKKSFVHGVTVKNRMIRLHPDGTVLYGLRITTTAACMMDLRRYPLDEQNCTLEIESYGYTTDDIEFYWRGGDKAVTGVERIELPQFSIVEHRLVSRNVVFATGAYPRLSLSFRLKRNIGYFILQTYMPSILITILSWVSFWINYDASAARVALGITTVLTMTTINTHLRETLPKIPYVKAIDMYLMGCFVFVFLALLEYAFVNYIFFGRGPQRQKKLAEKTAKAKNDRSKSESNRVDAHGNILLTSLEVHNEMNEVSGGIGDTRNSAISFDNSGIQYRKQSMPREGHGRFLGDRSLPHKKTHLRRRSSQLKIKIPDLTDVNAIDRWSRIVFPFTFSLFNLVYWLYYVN
Sequence of α2β3γ2 GABAA subtype receptor (P18507 40-475): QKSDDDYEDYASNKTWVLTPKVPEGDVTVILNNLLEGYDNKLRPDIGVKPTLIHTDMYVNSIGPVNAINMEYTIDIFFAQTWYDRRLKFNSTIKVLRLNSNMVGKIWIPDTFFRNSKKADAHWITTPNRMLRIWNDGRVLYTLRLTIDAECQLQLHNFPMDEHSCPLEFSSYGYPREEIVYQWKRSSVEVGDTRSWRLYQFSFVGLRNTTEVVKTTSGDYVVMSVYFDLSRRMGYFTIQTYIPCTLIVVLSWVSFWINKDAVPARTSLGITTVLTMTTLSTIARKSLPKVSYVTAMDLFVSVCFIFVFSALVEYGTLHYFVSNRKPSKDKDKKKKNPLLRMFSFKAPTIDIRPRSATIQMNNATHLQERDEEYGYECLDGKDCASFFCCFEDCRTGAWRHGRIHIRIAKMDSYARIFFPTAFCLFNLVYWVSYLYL
Excerpt: (§2) The in vitro efficacy and EC50 value of the test compound may be determined by measuring the chloride flux at the surface of a cell expressing the α,β, and γ subunits of the GABAA receptor in response to GABA by the two electrode voltage-clamp technique. While a variety of cells are suitable for use herein, the preferred cells used in this technique are Xenopus laevis oocytes that have been injected with non-polyadenylated CRNA coding for human derived α, βand γ GABAA subunits. The preferred form of the γ subunit is the normally expressed long form although an alternatively spliced form may be used.
(§3) Assays are carried out as described previously in White and Gurley, 1995 and White, et al., 1995. Xenopus laevis oocytes are enzymatically isolated and injected with non-polyadenylated cRNA for human derived α, β and γ GABAA subunits, respectively. In more preferred embodiments cRNA for the α1β2γ2, α2β3γ2, α3β3γ2, and α5β3γ2 subunit combinations are injected. Only one of these subunit combinations is injected per cell. For each subunit combination, sufficient message is injected to result in current amplitudes of >10 nA when 1 μM GABA is applied. Electrophysiological recordings are carried out using the two electrode voltage-clamp technique at a membrane holding potential of −70 mV.
(§4) Compounds are evaluated against a GABA concentration that evokes <10% (EC10) of the maximal evocable GABA current. Each oocyte is exposed to increasing concentrations of compound in order to evaluate a concentration/effect relationship.
(§5) Specificity of a compound for the Ro15-1788 site is determined following completion of the concentration/effect curve. After washing the oocyte sufficiently to remove previously applied compound, the oocyte is exposed to GABA and 1 μM Ro15-1788, followed by exposure to GABA, 1 μM Ro15-1788, and compound. Percent change due to addition of compound is calculated as described above. Any percent change observed in the presence of Ro15-1788 is subtracted from the percent changes in current amplitude observed in the absence of 1 μM Ro15-1788. These net values are used for the calculation of average activity and EC50 values.
(§6) To evaluate average activity and EC50 values, the concentration/effect data are averaged across cells and fit to the logistic equation. Average values are reported as mean±standard error.

[3] = target: α5β3γ2 GABAA subtype receptor (Homo sapiens, UniProt P18507+P31644); assay: cell-based; settings: human subunits, GABA at EC10
Sequence of α5β3γ2 GABAA subtype receptor (P31644 32-462): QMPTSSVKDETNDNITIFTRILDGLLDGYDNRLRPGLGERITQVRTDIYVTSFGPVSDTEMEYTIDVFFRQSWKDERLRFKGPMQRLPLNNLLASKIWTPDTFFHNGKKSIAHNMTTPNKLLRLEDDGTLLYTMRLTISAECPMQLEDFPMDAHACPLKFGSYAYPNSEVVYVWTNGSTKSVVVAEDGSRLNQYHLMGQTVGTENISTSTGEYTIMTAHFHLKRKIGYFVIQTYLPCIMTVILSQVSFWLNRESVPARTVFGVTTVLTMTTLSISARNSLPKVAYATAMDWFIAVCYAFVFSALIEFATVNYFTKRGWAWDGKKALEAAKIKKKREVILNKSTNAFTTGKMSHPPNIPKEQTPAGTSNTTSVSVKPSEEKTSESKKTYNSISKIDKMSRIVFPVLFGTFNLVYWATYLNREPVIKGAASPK
Sequence of α5β3γ2 GABAA subtype receptor (P28472 26-473 partner): as the sequence (P28472 26-473 partner) above
Sequence of α5β3γ2 GABAA subtype receptor (P18507 40-475): as the sequence (P18507 40-475) above
Excerpt: as §2, §3, §4, §5, §6

[4] = target: α1β2γ2 GABAA subtype receptor (Homo sapiens, UniProt P14867+P18507); assay: cell-based; settings: human subunits, GABA at EC10
Sequence of α1β2γ2 GABAA subtype receptor (P14867 28-456): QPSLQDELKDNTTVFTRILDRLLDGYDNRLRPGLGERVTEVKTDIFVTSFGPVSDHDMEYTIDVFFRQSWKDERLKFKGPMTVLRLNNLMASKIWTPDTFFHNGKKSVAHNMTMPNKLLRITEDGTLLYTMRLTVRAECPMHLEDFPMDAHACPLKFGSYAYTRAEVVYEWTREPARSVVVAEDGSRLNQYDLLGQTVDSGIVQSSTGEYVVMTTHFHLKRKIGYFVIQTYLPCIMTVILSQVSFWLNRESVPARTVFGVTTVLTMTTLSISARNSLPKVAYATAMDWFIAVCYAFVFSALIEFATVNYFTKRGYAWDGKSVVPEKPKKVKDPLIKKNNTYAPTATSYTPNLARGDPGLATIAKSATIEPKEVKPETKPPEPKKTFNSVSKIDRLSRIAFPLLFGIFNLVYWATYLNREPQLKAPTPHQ
Sequence of α1β2γ2 GABAA subtype receptor (P47870 25-512 partner limits assumed): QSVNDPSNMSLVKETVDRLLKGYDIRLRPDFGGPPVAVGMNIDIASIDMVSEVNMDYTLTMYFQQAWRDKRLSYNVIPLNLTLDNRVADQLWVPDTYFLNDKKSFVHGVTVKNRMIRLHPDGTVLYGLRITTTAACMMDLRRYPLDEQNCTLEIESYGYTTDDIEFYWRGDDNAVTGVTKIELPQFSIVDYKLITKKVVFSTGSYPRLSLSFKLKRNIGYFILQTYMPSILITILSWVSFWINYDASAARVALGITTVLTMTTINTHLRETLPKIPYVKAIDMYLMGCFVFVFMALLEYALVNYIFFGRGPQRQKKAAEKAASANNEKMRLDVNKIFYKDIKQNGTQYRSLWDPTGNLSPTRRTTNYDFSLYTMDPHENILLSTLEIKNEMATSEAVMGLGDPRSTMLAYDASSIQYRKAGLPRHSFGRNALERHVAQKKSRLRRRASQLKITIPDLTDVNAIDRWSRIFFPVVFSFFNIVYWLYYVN
Sequence of α1β2γ2 GABAA subtype receptor (P18507 40-475): as the sequence (P18507 40-475) above
Excerpt: as §2, §3, §4, §5, §6

[5] = target: α3β3γ2 GABAA subtype receptor (Homo sapiens, UniProt P18507+P34903); assay: cell-based; settings: oocyte electrophysiology EC50 α3β3γ2, Xenopus laevis oocytes, human subunits, GABA at EC10
Sequence of α3β3γ2 GABAA subtype receptor (P34903 29-492): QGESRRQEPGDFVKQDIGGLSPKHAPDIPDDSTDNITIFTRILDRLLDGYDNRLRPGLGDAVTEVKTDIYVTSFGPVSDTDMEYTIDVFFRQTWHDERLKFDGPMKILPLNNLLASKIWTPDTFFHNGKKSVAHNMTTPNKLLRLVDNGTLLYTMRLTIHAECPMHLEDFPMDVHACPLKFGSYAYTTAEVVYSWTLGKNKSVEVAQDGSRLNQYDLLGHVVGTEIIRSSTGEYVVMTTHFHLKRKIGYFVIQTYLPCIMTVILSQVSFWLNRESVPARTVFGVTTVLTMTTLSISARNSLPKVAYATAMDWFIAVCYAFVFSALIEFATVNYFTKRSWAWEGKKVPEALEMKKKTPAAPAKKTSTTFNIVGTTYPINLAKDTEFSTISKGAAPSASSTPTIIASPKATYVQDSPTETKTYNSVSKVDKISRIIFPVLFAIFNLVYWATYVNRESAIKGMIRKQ
Sequence of α3β3γ2 GABAA subtype receptor (P28472 26-473 partner): as the sequence (P28472 26-473 partner) above
Sequence of α3β3γ2 GABAA subtype receptor (P18507 40-475): as the sequence (P18507 40-475) above
Excerpt: as §2, §3, §4, §5, §6

[6] = target: GABAA receptors (Ro15-1788 / benzodiazepine site), rat cortex membranes; assay: Ro15-1788 competition binding assay, rat cortex membranes; settings: displacement of 3H Ro15-1788, rat cortex membranes
Protocol: Rat cortex membranes are prepared by homogenizing one or two previously frozen rat cortexes in 30 ml of 25 mM Tris Buffer, pH 7.4. The homogenate is centrifuged for 10 minutes at 500×g. The supernatant is then transferred to a clean centrifuge tube and the pellet discarded. The supernatant is spun for 20 minutes at 48,000×g. The supernatant from this spin is discarded and the pellet is resuspended in 30 ml of 25 mM Tris Buffer, pH 7.4 and centrifuged for an additional 10 minutes at 48,000×g. The supernatant from the final spin is discarded and the membrane pellet is resuspended in 100 mL Tris buffer per gram of cortex used.
The cortex membrane preparation is used to perform either percent inhibition or competition binding assays. In order to determine percent inhibition 300 μl of resuspended membranes are mixed with 200 μl ^3H labeled Ro15-1788 (final concentration 2.5 nM) and incubated for 1 hour on ice in the presence of 2 μl test compound in DMSO (final concentration 4 μM). Membranes are harvested onto untreated filtermats. The filtermats are dried and the ^3H Ro15-1788 signal is counted in a scintillation counter. Nonspecific binding is determined by displacement of ^3H Ro15-1788 with 10 μM Diazepam (RBI) or any other compound known to bind tightly at the benzodiazepine site.
Ki values are calculated according to the Cheng-Prussof equation.

rats [7] = assay: step-down passive avoidance; type: in vivo; settings: rat, IV; cognitive enhancement (Table X)
Excerpt: as §1
In step-down passive avoidance a rat is placed on a platform located in the center of an electrified grid floor that is contained within a large (45 cm×45 cm×50 cm) white translucent Plexiglas® enclosure. The natural inclination of the rat is to step off the platform and investigate its surroundings. […] Each time the animal steps off the platform it receives a mild foot shock of 2 mAmps×6 sec. Following each shock the animal is removed from the box, placed in its cage for a one minute inter-trial interval, and then returned to the platform. The latency to step down on each trial, the number of trials taken to reach criterion during training and the retention latency are collected.
Testing is conducted approximately 24 hrs. after training. Drug-free animals are placed on the platform in the box in which they will have been trained and the latency to step down onto the grid floor is recorded for one trial as a measure of memory retention.

[8] = Xenopus laevis oocytes, negative = inverse agonism

O=C1C2C=Nc3ccccc3C2=NN1c1ccccc1 (stereo not drawn) [CGS 8216, reference compound]
bicuculline seizure threshold, mean percent decrease in seizure threshold over the dose range studied (rats [1]): 50%
EC50 [2]: 2 nM
oocyte electrophysiology maximum potentiation α5β3γ2 [3, 8]: −39%
EC50 ([3]; oocyte electrophysiology EC50 α5β3γ2, Xenopus laevis oocytes): 1 nM
oocyte electrophysiology maximum potentiation α1β2γ2 [4, 8]: −26%
EC50 ([4]; oocyte electrophysiology EC50 α1β2γ2, Xenopus laevis oocytes): 0.7 nM
EC50 [5]: 2 nM
Ki [6]: 0.2 nM
cognitive model: step-down passive avoidance, minimal efficacious dose (rats [7]): 0.06 mg/kg

Source: patent US20020115611A1, “Methods for screening GABA-modulatory compounds for specified pharmacological activities” (priority 1999, published 2002)
